{"source": "patent US20090202618A1", "about": "“Dna vaccines encoding hsp60 peptide fragments for treating autoimmune diseases” (Yeda Research & Development Co. Ltd, priority 2003, published 2009)", "tested_on": "LNC", "experiment": "LNC proliferative response to overlapping peptides of HSP60", "format": "cell-based, Lewis rats", "details": "day 26 after AA induction, SI±SEM, SI<2 considered not significant", "method": "T-cell proliferation assays were performed at day 26 after the induction of AA, when the disease is at its peak, as previously described (Quintana et al., 2002). Briefly, popliteal and inguinal lymph node cells (LNC), were cultured in quadruplicates in 200 μl round bottom microtiter wells (Costar Corp., Cambridge, USA) at 2×10^5 cells per well with or without antigen. The T-cell mitogen Concanavalin A (Con A) was used as a positive control for T-cell proliferation. Cultures were incubated for 96 hr at 37° C. in a humidified atmosphere of 5% CO2. T-cell responses were detected by the incorporation of [methyl-3H]-thymidine (Amersham, Buckinghamshire, UK; 1 μCi/well), which was added to the wells for the last 18 hr. The stimulation index (SI) was computed as the ratio of the mean c.p.m. of antigen- or mitogen-containing wells to control wells cultured with medium alone. The results of T-cell proliferation experiments are shown as SI±SEM, T-cell responses with SI<2 were considered not significant.\nIt was previously reported that the suppression of AA by pHSP60 DNA vaccination was associated with T-cell reactivity to a single HSP60 peptide epitope, Hu3 (Quintana et al., 2003). […]", "data": [{"sequence": "KFGADARALMLQGVDLLADA (human hsp60 epitope) [Hu3]", "values": [{"measurement": "Stimulation Index (SI)", "setting": "LNC from pHSP70-vaccinated rats", "result": "did not respond"}, {"measurement": "Stimulation Index (SI)", "setting": "LNC from pcDNA3-vaccinated rats", "result": "did not respond"}]}]}
